Data published in the NIST ThermoML archive (doi:10.1021/je060247x).

Conditions: Liquid

CCCCCCCC[n+]1ccn(C)c1.F[B-](F)(F)F [1-methyl-3-octylimidazolium tetrafluoroborate]
mass density [kg/m3]
Conditions | 100 kPa | 1000 kPa | 2000 kPa | 3000 kPa | 4000 kPa | 5000 kPa | 10000 kPa
293.15 K | 1108.7 | 1109.1 | 1109.6 | 1110 | 1110.5 | 1110.9 | 1113.1
303.15 K | 1100.7 | 1101.1 | 1101.6 | 1102.1 | 1102.6 | 1103.1 | 1105.4
313.15 K | 1092.9 | 1093.4 | 1093.9 | 1094.4 | 1094.9 | 1095.4 | 1097.9
323.15 K | 1085.4 | 1085.9 | 1086.4 | 1087 | 1087.5 | 1088 | 1090.6
333.15 K | 1078.2 | 1078.7 | 1079.3 | 1079.8 | 1080.3 | 1080.9 | 1083.5
343.15 K | 1071.4 | 1072 | 1072.5 | 1073.1 | 1073.7 | 1074.2 | 1076.9
353.15 K | 1064.7 | 1065.2 | 1065.8 | 1066.4 | 1067 | 1067.6 | 1070.3
363.15 K | 1058.6 | 1059.1 | 1059.8 | 1060.4 | 1061 | 1061.6 | 1064.4
373.15 K | 1052.4 | 1053 | 1053.7 | 1054.3 | 1054.9 | 1055.5 | 1058.5
383.15 K | 1046.6 | 1047.2 | 1047.9 | 1048.5 | 1049.2 | 1049.8 | 1052.9
393.15 K | 1040.9 | 1041.5 | 1042.1 | 1042.8 | 1043.4 | 1044.1 | 1047.2

CCCCn1cc[n+](C)c1.F[B-](F)(F)F [1-butyl-3-methylimidazolium tetrafluoroborate]
mass density [kg/m3]
Conditions | 100 kPa | 1000 kPa | 2000 kPa | 3000 kPa | 4000 kPa | 5000 kPa | 10000 kPa
293.15 K | 1206.9 | 1207.3 | 1207.7 | 1208.2 | 1208.7 | 1209.1 | 1211.3
303.15 K | 1198.6 | 1199.1 | 1199.6 | 1200.1 | 1200.7 | 1201.1 | 1203.5
313.15 K | 1190.8 | 1191.3 | 1191.8 | 1192.2 | 1192.7 | 1193.2 | 1195.5
323.15 K | 1183 | 1183.5 | 1184 | 1184.5 | 1185 | 1185.5 | 1187.8
333.15 K | 1175.8 | 1176.3 | 1176.9 | 1177.4 | 1177.9 | 1178.4 | 1181
343.15 K | 1168.4 | 1168.9 | 1169.3 | 1169.8 | 1170.3 | 1170.8 | 1173.1
353.15 K | 1161.3 | 1161.8 | 1162.4 | 1163 | 1163.5 | 1164.1 | 1166.6
363.15 K | 1154.7 | 1155.3 | 1155.8 | 1156.4 | 1156.9 | 1157.5 | 1160.1
373.15 K | 1148.2 | 1148.8 | 1149.3 | 1149.9 | 1150.4 | 1151 | 1153.6
383.15 K | 1142 | 1142.5 | 1143.1 | 1143.7 | 1144.3 | 1144.8 | 1147.6
393.15 K | 1136.1 | 1136.7 | 1137.3 | 1137.9 | 1138.4 | 1139 | 1141.9

CCCCCCn1cc[n+](C)c1.F[P-](F)(F)(F)(F)F [1-hexyl-3-methylimidazolium hexafluorophosphate]
mass density [kg/m3]
Conditions | 100 kPa | 1000 kPa | 2000 kPa | 3000 kPa | 4000 kPa | 5000 kPa | 10000 kPa
293.15 K | 1299.8 | 1300.3 | 1300.8 | 1301.4 | 1301.9 | 1302.4 | 1304.9
303.15 K | 1290.6 | 1291.1 | 1291.7 | 1292.2 | 1292.7 | 1293.2 | 1295.8
313.15 K | 1281.5 | 1282 | 1282.6 | 1283.1 | 1283.7 | 1284.3 | 1287
323.15 K | 1272.7 | 1273.2 | 1273.9 | 1274.5 | 1275 | 1275.6 | 1278.5
333.15 K | 1264.2 | 1264.8 | 1265.4 | 1266 | 1266.6 | 1267.3 | 1270.3
343.15 K | 1256.1 | 1256.7 | 1257.3 | 1258 | 1258.6 | 1259.2 | 1262
353.15 K | 1248 | 1248.6 | 1249.2 | 1249.9 | 1250.5 | 1251.2 | 1254.2
363.15 K | 1240.6 | 1241.2 | 1242 | 1242.6 | 1243.3 | 1244 | 1247.2
373.15 K | 1233.4 | 1234.1 | 1234.9 | 1235.6 | 1236.3 | 1237 | 1240.3
383.15 K | 1226.4 | 1227.2 | 1227.9 | 1228.7 | 1229.4 | 1230.1 | 1233.6
393.15 K | 1219.4 | 1220.1 | 1220.9 | 1221.7 | 1222.5 | 1223.3 | 1227

CCCCn1cc[n+](C)c1C.F[P-](F)(F)(F)(F)F [1-butyl-2,3-dimethylimidazolium hexafluorophosphate]
mass density [kg/m3]
Conditions | 313.15 K | 323.15 K | 333.15 K | 343.15 K | 353.15 K | 363.15 K | 373.15 K | 383.15 K | 393.15 K
100 kPa | 1339.6 | 1330.9 | 1321.9 | 1313.5 | 1305.4 | 1297.6 | 1290.6 | 1283.4 | 1276.1
1000 kPa | 1340 | 1331.4 | 1322.4 | 1314.1 | 1306 | 1298.2 | 1291.2 | 1284 | 1276.8
2000 kPa | 1340.7 | 1331.9 | 1323 | 1314.6 | 1306.6 | 1298.8 | 1291.9 | 1284.7 | 1277.4
3000 kPa | 1341.2 | 1332.5 | 1323.5 | 1315.2 | 1307.2 | 1299.4 | 1292.5 | 1285.3 | 1278.1
4000 kPa | 1341.6 | 1333.1 | 1324.1 | 1315.8 | 1307.8 | 1300.1 | 1293.2 | 1286 | 1278.8
5000 kPa | 1342.1 | 1333.6 | 1324.6 | 1316.3 | 1308.3 | 1300.7 | 1293.8 | 1286.6 | 1279.4
10000 kPa | 1344.6 | 1336.2 | 1327.2 | 1319.1 | 1311.1 | 1303.6 | 1296.7 | 1289.7 | 1282.6

CCCCn1cc[n+](C)c1.O=S(=O)([O-])C(F)(F)F [1-butyl-3-methylimidazolium trifluoromethanesulfonate]
mass density [kg/m3]
Conditions | 100 kPa | 1000 kPa | 2000 kPa | 3000 kPa | 4000 kPa | 5000 kPa | 10000 kPa
293.15 K | 1306.1 | 1306.6 | 1307.1 | 1307.7 | 1308.2 | 1308.8 | 1311.5
303.15 K | 1296.6 | 1297.1 | 1297.7 | 1298.3 | 1298.9 | 1299.5 | 1302.3
313.15 K | 1287.6 | 1288.1 | 1288.7 | 1289.3 | 1289.9 | 1290.5 | 1293.3
323.15 K | 1278.7 | 1279.3 | 1280 | 1280.7 | 1281.3 | 1282 | 1285
333.15 K | 1270.5 | 1271.1 | 1271.7 | 1272.4 | 1273.1 | 1273.8 | 1276.9
343.15 K | 1262.5 | 1263.1 | 1263.8 | 1264.5 | 1265.2 | 1265.8 | 1269.1
353.15 K | 1254 | 1254.7 | 1255.3 | 1256 | 1256.7 | 1257.4 | 1260.7
363.15 K | 1246.8 | 1247.5 | 1248.3 | 1249 | 1249.7 | 1250.4 | 1253.8
373.15 K | 1239.6 | 1240.3 | 1241.1 | 1241.8 | 1242.5 | 1243.2 | 1246.6
383.15 K | 1232.4 | 1233.1 | 1233.9 | 1234.6 | 1235.4 | 1236.1 | 1239.7
393.15 K | 1225.3 | 1226.1 | 1226.8 | 1227.6 | 1228.4 | 1229.1 | 1232.7

CCCCCCCC[n+]1ccn(C)c1.F[P-](F)(F)(F)(F)F [1-octyl-3-methylimidazolium hexafluorophosphate]
mass density [kg/m3]
Conditions | 100 kPa | 1000 kPa | 2000 kPa | 3000 kPa | 4000 kPa | 5000 kPa | 10000 kPa
293.15 K | 1242.4 | 1242.9 | 1243.5 | 1244.1 | 1244.6 | 1245.1 | 1247.8
303.15 K | 1233.8 | 1234.4 | 1235 | 1235.6 | 1236.1 | 1236.7 | 1239.5
313.15 K | 1225.3 | 1225.9 | 1226.5 | 1227.1 | 1227.7 | 1228.3 | 1231.1
323.15 K | 1217.6 | 1218.2 | 1218.8 | 1219.4 | 1220 | 1220.6 | 1223.4
333.15 K | 1209.1 | 1209.7 | 1210.3 | 1211 | 1211.6 | 1212.2 | 1215.1
343.15 K | 1201 | 1201.6 | 1202.3 | 1203 | 1203.6 | 1204.3 | 1207.4
353.15 K | 1193.6 | 1194.3 | 1195 | 1195.7 | 1196.3 | 1197.1 | 1200.3
363.15 K | 1186.2 | 1186.9 | 1187.6 | 1188.3 | 1189 | 1189.7 | 1193
373.15 K | 1179.2 | 1179.9 | 1180.6 | 1181.3 | 1182 | 1182.7 | 1186.1
383.15 K | 1172.7 | 1173.5 | 1174.2 | 1174.9 | 1175.6 | 1176.3 | 1179.8
393.15 K | 1166 | 1166.8 | 1167.5 | 1168.3 | 1169.1 | 1169.8 | 1173.5
